Measured values reported in patent publication US9776992B2, “1-oxo-1,2-dihydroisoquinolin-7-yl-(5-substituted-thiophen-2-yl)-sulfonamide compounds, formulations containing those compounds, and their use as AICARFT inhibitors in the treatment of cancers” (Eli Lilly and Company, priority 2014, dated 2017).
pIC50: −log10 of the molar value.

Columns and labels:
[1] = test system: human lung carcinoma NCI-H460 mouse xenograft; assay: Antitumor efficacy in NCI-H460 mouse xenograft tumor model; format: in vivo; conditions: for % T/C: NCI-H460 xenograft, no folic acid, Day 20, Delta T/C, * = P<0.05
Experimental: In vivo studies are performed using female athymic nude mice (Harlan) with a bodyweight of 23-28 g at first measurement. Upon receipt and throughout the study, the animals are housed 5 animals per cage in appropriately sized solid-bottom cages with contact bedding. The animal room is maintained on a 12-hour light/dark cycle. Animals are acclimated for 14 days prior to implantation of the NCI-H460 or HCT-116 cells on low folate diet (Teklad 130451) ad libitum and autoclaved tap water is provided ad libitum. The HCT-116 and NCI-H460 cell line are obtained from American Type Culture Collection (ATCC) and is cultured following ATCC instructions. Cells used for implantation are harvested during log phase growth and suspended in serum-free media. The suspended cells are then diluted 1:1 with BD Matrigel Matrix (ref 354234). Cells are injected in the right flank with 5.0E+06 cells (0.2 mL cell/Matrigel suspension). Tumors are monitored beginning day 8 post implant. Animals are redistributed into groups with 5-6 animals per group utilizing proprietary randomization software when average tumor volume reaches 200 mm^3. Groups 1-12 are maintained on a low folate diet (Teklad 130451) and folic acid (Sigma F8798 Lot #SLBH0909V) administration at doses listed in the Table 19 began 28 hours prior to dose initiation and 4 hours prior to each dose. […] Tumor volume and body weight are measured 2× a week. Tumor volume is determined by caliper measurements (mm) and using the formula for an ellipsoid sphere: tumor volume (mm^3)=length×width^2/2, where length and width refer to the larger and smaller perpendicular dimensions collected at each measurement. The animal behavior and animal health are monitored daily during dosing period.
The statistical analysis of the tumor volume data begins with a data transformation to a log scale to equalize variance across time and treatment groups. The log volume data are analyzed with a two-way repeated measures analysis of variance by time and treatment using the MIXED procedures in SAS software (Version 9.3). […]

[2] = test system: large cell lung cancer NCI-H460; assay: Low folate in vitro proliferation assay, NCI-H460; format: cell-based; conditions: Homo sapiens, 168 h; NCI-H460, low folate media, 7 days
Excerpt: Allow cells to attach overnight. […] Final concentration of compounds will be 1×. […] Dose cells with compounds of interest for 7 days. […] Determine % inhibition for each sample (see Table 18).

[3] = test system: panel of 46 cancer cell lines; assay: Low folate in vitro proliferation assay, cancer cell line panel (Alamar Blue); conditions: media conditions with folate levels similar to human plasma; summary of Table 18
Experimental: Supplement 500 mL Gibco folate free RPMI media (Gibco #27016-021) with 1 M Hepes (5 mL), 100 mM Na pyruvate (5 mL) and 0.5 g/mL glucose (2.5 mL) to match high folate ATCC RPMI media (ATCC #30-2001). To make complete media, both regular and folate free RPMI medias are supplemented with 10% FBS. The addition of FBS to folate free media adds low levels of folate and is now considered to be low folate media.
Transfer cells growing in high folate RPMI media (ATCC #30-2001)+10% FBS (Hyclone #SH30070.03) to low folate RPMI media and folate starve for 7 days. Wash cells grown in high folate media with PBS, trypsinize, and resuspend in low folate media. Grow cells in low folate media for 7 days making sure to seed tissue culture flasks at a density that will not exceed 80% confluence after 7 days. Wash cells in PBS, trypsinize, and resuspend in low folate media and count cells. Seed 96 well poly D lysine plate (Corning #354640) at 3000 cells/well in 100 μl low folate media. Allow cells to attach overnight. Prepare 10 mM DMSO stocks of compounds to be tested in proliferation assay. Determine concentrations to be tested and dilute compounds to 2× final concentration in low folate media. Calculate % DMSO of this solution and use this value as diluent. […] Read plates on the Envision plate reader (Perkin Elmer), or other fluorescent plate reader, with excitation at 570 nm and emission at 585 nm. […]

AICARFT = AICARFT in vivo target inhibition (IVTI) assay in mouse plasma (AICAr)
Experimental: (§1) In vivo studies are performed using female athymic nude mice (Harlan) with a bodyweight of 23-28 g at first measurement. Upon receipt and throughout the study, the animals are housed 5 animals per cage in appropriately sized solid-bottom cages with contact bedding. The animal room is maintained on a 12-hour light/dark cycle. Animals are acclimated for 14 days prior to implantation of the NCI-H460 or HCT-116 cells on low folate diet (Teklad 130451) ad libitum and autoclaved tap water is provided ad libitum. The HCT-116 and NCI-H460 cell line are obtained from American Type Culture Collection (ATCC) and is cultured following ATCC instructions. Cells used for implantation are harvested during log phase growth and suspended in serum-free media. The suspended cells are then diluted 1:1 with BD Matrigel Matrix (ref 354234). Cells are injected in the right flank with 5.0E+06 cells (0.2 mL cell/Matrigel suspension). Tumors are monitored beginning day 8 post implant. Animals are redistributed into groups with 5-6 animals per group utilizing proprietary randomization software when average tumor volume reaches 200 mm^3. Groups 1-12 are maintained on a low folate diet (Teklad 130451) and folic acid (Sigma F8798 Lot #SLBH0909V) administration at doses listed in the Table 19 began 28 hours prior to dose initiation and 4 hours prior to each dose. Folic acid is formulated weekly in PBS and dosed via oral gavage at 0.2 mL. Groups 13-16 are placed on standard chow (Teklad 2920X) at randomization. The compound is formulated weekly in 20% HPBCD in Phosphate buffer pH 8 with one molar equivalent NaOH added. The formulated compound is administered at the doses and schedules indicated in Table 19 by oral gavage (0.2 mL). The vehicle is also given QD as the control arm of the study. Tumor volume and body weight are measured 2× a week. Tumor volume is determined by caliper measurements (mm) and using the formula for an ellipsoid sphere: tumor volume (mm^3)=length×width^2/2, where length and width refer to the larger and smaller perpendicular dimensions collected at each measurement. The animal behavior and animal health are monitored daily during dosing period.
The in vivo effects of AICARFT inhibition on the circulating concentration of AICAr is determined by liquid chromatography-mass spectrometry (LC-MS). Standard curves containing AICAr at concentrations of 1 ng/mL-2000 ng/mL are prepared in 40 mM ammonium acetate, pH 4. Plasma samples (75 μL) or standards (75 μL) are combined with 300 μL of an internal standard solution containing 13C5-AICAr (20 ng/mL) and formic acid (1%) in ACN. The samples are vortex mixed for 5 minutes and passed through a Phenomenex Phree 96-well phospholipid removal SPE plate. The eluents are collected in a 96-well plate and dried under heated nitrogen at 50° C. Each sample is reconstituted in 50 μL of 40 mM ammonium acetate, pH 4. The plates are sealed and vortexed for 5 minutes prior to analysis. The LC-MS method utilized a Shimadzu Prominence 20A HPLC system connected to an AB Sciex 5500™ or an AB Sciex 6500™ triple quadrupole mass spectrometer running Analyst® software. Extracted samples are separated using two Thermo Hypercarb™ Javelin guard columns (2.1×20 mm, 5 μm) connected in series with an injection volume of 15 μL and a flow rate of 1 mL/minute. Mobile phase A is a 95:5 mixture of 50 mM ammonium formate, pH 4 and ACN. Mobile phase B is a 70:30 mixture of ACN and MeOH spiked with 0.3% formic acid and 2% concentrated ammonium hydroxide solution (v/v). For mouse plasma samples the following gradient is used: 0 minutes, 0% B; 0.25 minutes, 0% B; 2.00 minutes, 25% B; 2.01 minutes, 95% B; 3.50 minutes, 95% B; 3.51 minutes, 0% B; 4.50 minutes, stop. For dog plasma samples the following gradient is used to remove endogenous interferences: 0 minutes, 0% B; 0.25 minutes, 0% B; 5.99 minutes, 20% B; 6.00 minutes, 95% B; 8.00 minutes, 95% B; 8.01 minutes, 0% B; 10.00 minutes, stop. […]

[4] = test system: human colorectal adenocarcinoma cell line HCT-116 mouse xenograft; assay: Antitumor efficacy in HCT-116 mouse xenograft tumor model; format: in vivo; conditions: for % T/C: HCT-116 xenograft, Day 23, Delta T/C, * = P<0.05
Experimental: as §1
The statistical analysis of the tumor volume data begins with a data transformation to a log scale to equalize variance across time and treatment groups. The log volume data are analyzed with a two-way repeated measures analysis of variance by time and treatment using the MIXED procedures in SAS software (Version 9.3). The correlation model for the repeated measures is Spatial Power. Treated groups are compared to the control group at each time point. The MIXED procedure is also used separately for each treatment group to calculate adjusted means and standard errors at each time point. Both analyses account for the autocorrelation within each animal and the loss of data that occurs when animals with large tumors are removed from the study early. The adjusted means and standard errors are plotted for each treatment group vs time. The analysis comparing the treated groups to the control groups at each time point uses the log 10 tumor volumes and produces the p-values. For statistical significance of p-values shown, “*”=P<0.05.
Delta T/C, % calculation is used. Equations: T=Final tumor volume in treated group; T0=Baseline tumor volume in treated group (assumed to be same as C0); C=Final tumor volume in control group; C0=Baseline tumor volume in control group (assumed to be same as T0); Delta T/C, %=100*(T−T0)/(C−C0)

- pIC50 [2]: 7.70
Structure (SMILES): O=c1[nH]ccc2cc(F)c(NS(=O)(=O)c3ccc(N4CC[C@@H](O)C4)s3)cc12 [Example 1, N-(6-Fluoro-1-oxo-1,2-dihydroisoquinolin-7-yl)-5-[(3R)-3-hydroxypyrrolidin-1-yl]thiophene-2-sulfonamide]
- in vivo anticancer activity (in words) ([1]; NCI-H460 xenograft tumors, QD continuously for 2 weeks): demonstrates in vivo anticancer activity
- % T/C ([1]; Group 14, standard chow, 10 mg/kg QD × 13, orally): 113%
- % T/C ([1]; Group 15, standard chow, 30 mg/kg QD × 13, orally): 42* %
- inhibition of proliferation of cancer cells (in words) [3]: inhibits proliferation of cancer cells
- Mean Plasma AICAr (AICARFT; HCT-116 xenograft mice, Group 6, low folate diet, folic acid 0.75 mg/kg (QD × 15, orally), 10 mg/kg QD × 14, orally, Day 23): 88 nM
- Mean Plasma AICAr (AICARFT; HCT-116 xenograft mice, Group 7, low folate diet, folic acid 0.75 mg/kg (QD × 15, orally), 30 mg/kg QD × 14, orally, Day 23): 181 nM
- Mean Plasma AICAr (AICARFT; HCT-116 xenograft mice, Group 14, standard chow, no folic acid, 10 mg/kg QD × 14, orally, Day 23): 44 nM
- Mean Plasma AICAr (AICARFT; HCT-116 xenograft mice, Group 15, standard chow, no folic acid, 30 mg/kg QD × 14, orally, Day 23): 154 nM
- Mean Plasma AICAr (AICARFT; NCI-H460 xenograft mice, Group 14, standard chow, no folic acid, 10 mg/kg QD × 13, orally, Day 20): 368 nM
- Mean Plasma AICAr (AICARFT; NCI-H460 xenograft mice, Group 15, standard chow, no folic acid, 30 mg/kg QD × 13, orally, Day 20): 1400 nM
- in vivo anticancer activity (in words) ([4]; HCT-116 xenograft tumors, QD continuously for 2 weeks): demonstrates in vivo anticancer activity
- % T/C ([4]; Group 6, low folate diet, folic acid 0.75 mg/kg (QD × 15, orally), 10 mg/kg QD × 14, orally): 65* %
- % T/C ([4]; Group 7, low folate diet, folic acid 0.75 mg/kg (QD × 15, orally), 30 mg/kg QD × 14, orally): 57* %
- % T/C ([4]; Group 14, standard chow, no folic acid, 10 mg/kg QD × 14, orally): 112%
- % T/C ([4]; Group 15, standard chow, no folic acid, 30 mg/kg QD × 14, orally): 49%
